Laboratory results: the NIST ThermoML archive (doi:10.1021/acs.jced.8b00229)

Settings: Liquid, Vibrating tube method

C=CCCC [1-pentene]
Settings	mass density [kg/m3]
283.48 K, 100 kPa	650.3
283.48 K, 500 kPa	650.8
283.48 K, 1000 kPa	651.6
283.48 K, 3000 kPa	654
283.48 K, 70000 kPa	708.8
283.48 K, 80000 kPa	714.8
283.49 K, 5000 kPa	656.3
283.49 K, 10000 kPa	661.8
283.49 K, 15000 kPa	666.9
283.49 K, 20000 kPa	671.7
283.49 K, 25000 kPa	676.2
283.49 K, 30000 kPa	680.4
283.49 K, 35000 kPa	684.5
283.49 K, 40000 kPa	688.4
283.49 K, 45000 kPa	692.1
283.49 K, 50000 kPa	695.7
283.49 K, 55000 kPa	699.1
283.49 K, 60000 kPa	702.5
283.49 K, 90000 kPa	720.4
283.49 K, 100000 kPa	725.7
293.42 K, 100 kPa	640.1
293.42 K, 500 kPa	640.7
293.42 K, 1000 kPa	641.4
293.42 K, 3000 kPa	644
293.42 K, 5000 kPa	646.5
293.42 K, 10000 kPa	652.4
293.42 K, 40000 kPa	680.8
293.42 K, 55000 kPa	692
293.42 K, 60000 kPa	695.5
293.42 K, 70000 kPa	702.2
293.42 K, 80000 kPa	708.3
293.42 K, 90000 kPa	714.1
293.42 K, 100000 kPa	719.6
293.43 K, 15000 kPa	657.9
293.43 K, 20000 kPa	663
293.43 K, 25000 kPa	667.8
293.43 K, 35000 kPa	676.7
293.43 K, 45000 kPa	684.7
293.43 K, 50000 kPa	688.4
293.44 K, 30000 kPa	672.3
303.33 K, 100 kPa	629.8
303.33 K, 1000 kPa	631.1
303.33 K, 3000 kPa	634
303.33 K, 35000 kPa	668.9
303.34 K, 5000 kPa	636.7
303.34 K, 10000 kPa	643.1
303.34 K, 15000 kPa	649
303.34 K, 20000 kPa	654.5
303.34 K, 25000 kPa	659.6
303.34 K, 30000 kPa	664.4
303.34 K, 40000 kPa	673.2
303.34 K, 45000 kPa	677.3
303.34 K, 50000 kPa	681.2
303.34 K, 80000 kPa	702
303.34 K, 90000 kPa	707.9
303.35 K, 55000 kPa	685
303.35 K, 60000 kPa	688.6
303.35 K, 70000 kPa	695.6
303.35 K, 100000 kPa	713.6
313.27 K, 500 kPa	620.4
313.27 K, 3000 kPa	624.5
313.27 K, 5000 kPa	627.5
313.27 K, 10000 kPa	634.4
313.28 K, 1000 kPa	621.3
313.28 K, 15000 kPa	640.8
313.28 K, 20000 kPa	646.7
313.28 K, 25000 kPa	652.1
313.28 K, 30000 kPa	657.2
313.28 K, 45000 kPa	670.8
313.28 K, 50000 kPa	674.9
313.28 K, 70000 kPa	689.9
313.29 K, 35000 kPa	661.9
313.29 K, 40000 kPa	666.6
313.29 K, 55000 kPa	678.8
313.29 K, 60000 kPa	682.6
313.29 K, 80000 kPa	696.4
313.29 K, 90000 kPa	702.6
313.29 K, 100000 kPa	708.4
323.18 K, 500 kPa	608.6
323.18 K, 1000 kPa	609.3
323.18 K, 3000 kPa	612.8
323.18 K, 5000 kPa	616.1
323.19 K, 10000 kPa	623.7
323.19 K, 15000 kPa	630.6
323.19 K, 20000 kPa	636.9
323.19 K, 25000 kPa	642.7
323.19 K, 30000 kPa	648.1
323.19 K, 35000 kPa	653.1
323.19 K, 40000 kPa	657.9
323.19 K, 45000 kPa	662.4
323.19 K, 50000 kPa	666.7
323.19 K, 55000 kPa	670.8
323.19 K, 60000 kPa	674.7
323.19 K, 70000 kPa	682.2
323.19 K, 80000 kPa	689.1
323.19 K, 90000 kPa	695.4
323.19 K, 100000 kPa	701.5
333.04 K, 500 kPa	597.2
333.04 K, 1000 kPa	598.1
333.04 K, 3000 kPa	601.9
333.04 K, 5000 kPa	605.6
333.04 K, 10000 kPa	613.9
333.05 K, 15000 kPa	621.4
333.05 K, 20000 kPa	628.1
333.05 K, 25000 kPa	634.3
333.05 K, 30000 kPa	640
333.05 K, 35000 kPa	645.3
333.05 K, 40000 kPa	650.4
333.05 K, 45000 kPa	655.1
333.05 K, 50000 kPa	659.6
333.05 K, 55000 kPa	663.9
333.05 K, 60000 kPa	668
333.05 K, 70000 kPa	675.8
333.05 K, 100000 kPa	695.8
333.06 K, 80000 kPa	683
333.06 K, 90000 kPa	689.6
342.94 K, 500 kPa	585.8
342.94 K, 1000 kPa	586.8
342.94 K, 90000 kPa	684
342.95 K, 3000 kPa	591.2
342.95 K, 5000 kPa	595.3
342.95 K, 10000 kPa	604.4
342.95 K, 70000 kPa	669.9
342.95 K, 80000 kPa	677.2
342.95 K, 100000 kPa	690.4
342.96 K, 15000 kPa	612.5
342.96 K, 20000 kPa	619.8
342.96 K, 25000 kPa	626.3
342.96 K, 30000 kPa	632.4
342.96 K, 35000 kPa	638.1
342.96 K, 40000 kPa	643.4
342.96 K, 45000 kPa	648.4
342.96 K, 50000 kPa	653
342.96 K, 55000 kPa	657.5
342.96 K, 60000 kPa	661.8
352.82 K, 500 kPa	574.2
352.82 K, 1000 kPa	575.6
352.82 K, 3000 kPa	580.5
352.82 K, 5000 kPa	585.1
352.82 K, 10000 kPa	595.2
352.83 K, 15000 kPa	603.9
352.83 K, 20000 kPa	611.7
352.83 K, 25000 kPa	618.7
352.83 K, 30000 kPa	625.2
352.83 K, 35000 kPa	631.2
352.83 K, 40000 kPa	636.7
352.83 K, 45000 kPa	641.9
352.83 K, 50000 kPa	646.9
352.83 K, 55000 kPa	651.5
352.83 K, 70000 kPa	664.3
352.83 K, 80000 kPa	671.9
352.83 K, 90000 kPa	679
352.83 K, 100000 kPa	685.6
352.84 K, 60000 kPa	655.9
362.67 K, 500 kPa	560.5
362.67 K, 1000 kPa	561.8
362.67 K, 3000 kPa	567.4
362.67 K, 80000 kPa	664.9
362.67 K, 100000 kPa	679
362.68 K, 5000 kPa	572.6
362.68 K, 10000 kPa	583.8
362.68 K, 15000 kPa	593.3
362.68 K, 20000 kPa	601.7
362.68 K, 25000 kPa	609.2
362.68 K, 30000 kPa	616.1
362.68 K, 35000 kPa	622.4
362.68 K, 40000 kPa	628.2
362.68 K, 45000 kPa	633.7
362.68 K, 50000 kPa	638.9
362.68 K, 55000 kPa	643.7
362.68 K, 60000 kPa	648.3
362.68 K, 70000 kPa	657.1
362.68 K, 90000 kPa	672.2
